Measurements published in PubChem BioAssay AID1645865 (Buhrlage Lab, Dana-Farber Cancer Institute and Novartis …, 2021).
Calls of active or inactive are those of the source.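 The calls were made as follows: active = maximal inhibition of the USP30 enzyme reaching 30% or more across the dose series; inactive = the rest.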

The compounds below were run against Ubiquitin carboxyl-terminal hydrolase 30 (Homo sapiens) (UniProt Q70CQ3) (assay: ubiquitin-specific protease 30 DUB inhibitors, concentration-effect, biochemical, validation of primary actives (AID 1645865)). Conditions: purified USP30, Ub-rhodamine cleavage, fluorescence, 2 h.
Sequence of Ubiquitin carboxyl-terminal hydrolase 30 (Homo sapiens) (Q70CQ3 whole entry, looked up): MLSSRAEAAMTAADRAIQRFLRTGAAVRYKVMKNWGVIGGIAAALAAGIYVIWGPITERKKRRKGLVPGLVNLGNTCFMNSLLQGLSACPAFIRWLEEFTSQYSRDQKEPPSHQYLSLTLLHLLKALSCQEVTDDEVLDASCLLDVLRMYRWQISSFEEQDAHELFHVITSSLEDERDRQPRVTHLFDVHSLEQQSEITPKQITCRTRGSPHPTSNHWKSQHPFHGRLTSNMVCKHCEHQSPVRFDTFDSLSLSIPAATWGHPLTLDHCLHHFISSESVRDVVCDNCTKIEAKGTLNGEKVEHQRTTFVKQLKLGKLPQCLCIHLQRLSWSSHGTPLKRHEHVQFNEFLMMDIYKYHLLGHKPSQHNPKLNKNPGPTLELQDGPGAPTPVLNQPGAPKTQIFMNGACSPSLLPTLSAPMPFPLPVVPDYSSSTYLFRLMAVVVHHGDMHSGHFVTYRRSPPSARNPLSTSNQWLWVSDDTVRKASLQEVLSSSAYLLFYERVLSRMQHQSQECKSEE
`COc1ccc(-n2c(=O)c(CCC(=O)O)nc3ccccc32)cc1` was tested, and the IC50 was > 50 µM (inactive). In the case of `CCOc1ccc2c(c1)c(=O)c(C(=O)c1ccc(C)cc1)cn2CC(=O)Nc1ccc(OC)c(OC)c1`, the IC50 is reported as 0.732 µM. Work on `COc1ccc(CCn2cnc3c([nH]c4ccccc43)c2=O)cc1` yielded an IC50 of 2.47 µM. With `Cc1ccc(CNC(=O)Cn2cnc3c(cnn3-c3cccc(Cl)c3)c2=O)cc1` the IC50 was 1.15 µM. For `CCn1c(COc2cccc(C(F)(F)F)c2)nnc1SCc1ccc(Cl)cc1`, the IC50 was 15.9 µM. For `Cc1ccccc1Cn1ccc2ccn(Cc3cccnc3)c2c1=O`, the IC50 was > 50 µM (inactive). Work on `CC(C)(C)c1cc(C[C@@H]2C[C@H](NC(=O)N3CCOCC3)C2(C)C)no1` yielded an IC50 of 22.2 µM. `O=C1CC(c2cc3c(cc2Br)OCO3)c2cc3c(cc2N1)OCCO3` (centres undefined) was tested, and the IC50 was 19.2 µM. Compound `Cc1ccc(C)c(Cn2nnc3c(=O)[nH]c(C4CCN(S(=O)(=O)c5ccc(S(=O)(=O)NC6CC6)cc5)CC4)nc32)c1` has an IC50 of 30.4 µM. For `CSc1nc(SCC(N)=O)c2c3c(sc2n1)COC(C)(C)C3`, the IC50 was 30.6 µM. Compound `CCOc1ccccc1NC(=O)Cn1c(=O)n(CCCC(=O)NCc2ccc(C)cc2)c(=O)c2sccc21` has an IC50 of 2.53 µM. For `Cc1nc2ccccn2c1C1(O)C(=O)Nc2c(Cl)cc(Cl)cc21` (centres undefined), the IC50 was > 50 µM (inactive). `CC(C)Cc1nc2sc3c(NCc4ccccc4)ncnc3c2c2c1COC(C)(C)C2` was tested, and the IC50 was 4.71 µM. `Cc1ccccc1C(=O)OCCN1C(=O)c2cccc3c(N4CCCCC4)ccc(c23)C1=O` was tested, and the IC50 was > 50 µM (inactive). `Fc1cc(F)c2[nH]cc(-c3nnnn3-c3ccc4ccccc4c3)c2c1` showed an IC50 of 7.66 µM. `O=C(Oc1ccc(-c2cnc3ccccc3n2)cc1)c1ccc(F)cc1` was tested, and the IC50 was 18.2 µM. For `Cc1ccc(C)c(-c2cc3c(=O)n(Cc4noc(CN5CCCCC5)n4)ccn3n2)c1`, the IC50 was > 50 µM (inactive). With `CCOc1ccccc1-c1nc(-c2nnn(Cc3ccccc3)c2C)no1` the IC50 was > 50 µM (inactive). With `Cc1nnc(Sc2cc(C(=O)NCCN3CCCC3)c3ccccc3n2)s1` the IC50 was > 50 µM (inactive). `Cc1ccc(-c2cn(CC(=O)N3CCN(c4ccccn4)CC3)c(=O)o2)cc1` gave an IC50 of 12.3 µM. With `CCOC(=O)c1sc2c(c1C)c(=O)n(Cc1ccccc1)c(=O)n2CC(N)=O` the IC50 was 45.5 µM. Work on `Cc1ccc(NC(=O)CSc2nc3c(cc2C#N)C(=O)CCC3)cc1` yielded an IC50 of 31.4 µM. Work on `CC1=C(c2ccc(C)c(C)c2)S(=O)(=O)NC1=NCC(=O)NCCCc1ccccc1` yielded an IC50 of 19.7 µM. Work on `COc1ccc(CNC(=O)CN2C(=O)CC(c3ccccc3)=Nc3ccccc32)cc1` yielded an IC50 of 14.6 µM. `COc1ccc(OC)c2c(C)cc(N3CCN(S(=O)(=O)c4ccc5c(c4)CCCN5S(C)(=O)=O)CC3)nc12` gave an IC50 of 20.9 µM. In the case of `CCCCn1c(=O)c(CCC(=O)OCC(=O)Nc2ccc3c(c2)OCCO3)nc2ccccc21`, the IC50 is reported as > 50 µM (inactive). For `CCOC(=O)c1cc2c(ccn2C)n1CC(=O)N1CCc2ccccc2C1`, the IC50 was > 50 µM (inactive). `Cc1ccc2c(c1)-c1c(c(C(=O)N3CCN(c4ccccc4)CC3)nn1C)CS2` was tested, and the IC50 was > 50 µM (inactive). In the case of `O=C(Cc1noc2ccccc12)N1CCN(c2ccc([N+](=O)[O-])cc2)CC1`, the IC50 is reported as > 50 µM (inactive). In the case of `COc1ccc(-n2nnc(C(=O)Nc3ccccc3)c2N)cc1`, the IC50 is reported as > 50 µM (inactive). For `COc1ccc(/C=C\c2nccc3c2[nH]c2ccccc23)cc1`, the IC50 was > 50 µM (inactive). `CCCNC(=O)c1ccn(-c2ccc3ccc(-c4cnn(C)c4)cn23)n1` was tested, and the IC50 was > 50 µM (inactive). Work on `Cc1nc(-c2cccc(NC(=O)C3CCN(c4ccccc4)C3=O)c2)no1` (centres undefined) yielded an IC50 of 45.3 µM. `CC(C(=O)NCc1ccc2c(c1)OCO2)N1CCN(c2ccc(O)cc2)CC1` (centres undefined) was tested, and the IC50 was > 50 µM (inactive). `O=C1COc2ccccc2N1Cc1noc(-c2ccccc2)n1` was tested, and the IC50 was > 50 µM (inactive). In the case of `CO[C@H]1[C@@H](O)[C@H](C)O[C@H](O[C@H]2[C@H](Oc3cccc4c(O)c5c(=O)oc6ccc(C)c7c(=O)oc(c34)c5c67)O[C@H](C)[C@H](O)[C@@H]2O)[C@@H]1O`, the IC50 is reported as > 50 µM (inactive). For `Cc1c(C(=O)c2ccccc2)c2ccccn2c1CCc1ccccn1`, the IC50 was > 50 µM (inactive). For `O=C(Nc1ccccc1-c1nc2ccccc2[nH]1)c1sc2ccccc2c1Cl`, the IC50 was 1.76 µM. `Oc1ccc(-c2nc3ccc(Cl)cn3c2NC2CCCCC2)cc1` was tested, and the IC50 was 14.1 µM. `CC(C)NC(=O)Cn1ccn2nc(-c3ccc(Cl)cc3)cc2c1=O` showed an IC50 of 3.6 µM. In the case of `NC(=O)c1ccc(NC(=O)Cc2cc(-c3ccc(Cl)cc3)on2)cc1`, the IC50 is reported as > 50 µM (inactive). `O=C(NCc1ccc(Cl)cc1)Nc1cccc2ccccc12` showed an IC50 of 25.3 µM. For `CN1CCN(c2ncnc3c2oc2ccc(Cl)cc23)CC1`, the IC50 was > 50 µM (inactive). With `COc1cc(NC(=O)c2cc(CN3CCOCC3)on2)cc(OC)c1` the IC50 was > 50 µM (inactive). `O=C(COC(=O)c1cc(Cl)c2c(c1)OCO2)Nc1ccc2[nH]c(=O)[nH]c2c1` was tested, and the IC50 was > 50 µM (inactive). `CC1Oc2ccccc2C(=O)N(Cc2ccc([N+](=O)[O-])cc2)C1=O` (centres undefined) was tested, and the IC50 was > 50 µM (inactive). With `O=S(=O)(c1cccc2cccnc12)N(CCc1ccccc1)C1CCN(CCc2ccc(Cl)cc2)CC1` the IC50 was > 50 µM (inactive). With `Cc1ccc(NC(=O)Cc2nnc3c(-c4nc(C5CC5)no4)cccn23)cc1` the IC50 was 3.15 µM. Compound `Cc1cccc(NC(=O)CSc2nnc(-c3n[nH]c4c3CCC4)n2N)c1` has an IC50 of 25.6 µM.
